Source: PubChem BioAssay (NCI)
Several values for one entry are separate records, joined by “and”; a condition that tells them apart may be missing. Equal values may be shown once.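 Dose response: 5 concentrations. Exposure: 48 h. Format: 96-well plates. Endpoint: linear interpolation; highest concentration if not reached. GI50 = concentration required for 50% inhibition of growth. The concentration for full growth arrest is given as TGI.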

Key:
Experiment in all cases: NCI-60 cell line screen, 48 h
A549 NSCLC = system: A549 NSCLC
DU-145 prostate = system: DU-145 prostate
KM12 colon = system: KM12 colon
M14 melanoma = system: M14 melanoma
MDA-MB-435 = system: MDA-MB-435
MDA-N = system: MDA-N
OVCAR-4 ovarian = system: OVCAR-4 ovarian
SF-268 CNS = system: SF-268 CNS
UACC-62 melanoma = system: UACC-62 melanoma
UO-31 renal = system: UO-31 renal
MALME-3M melanoma = system: MALME-3M melanoma

| SMILES | TGI (A549 NSCLC) | TGI (DU-145 prostate) [µM] | TGI (KM12 colon) | TGI (M14 melanoma) | TGI (MDA-MB-435) [µM] | TGI (MDA-N) [µM] | TGI (OVCAR-4 ovarian) | TGI (SF-268 CNS) | TGI (UACC-62 melanoma) | TGI (UO-31 renal) | TGI (MALME-3M melanoma) | GI50 (UO-31 renal) |
| --- | --- | --- | --- | --- | --- | --- | --- | --- | --- | --- | --- | --- |
| C[C@H](O)C1CC(Cn2nnc3c(N)ncnc32)C1(C)C (some centres undefined) | > 100 µM | > 100 | > 100 µM | > 100 µM | > 100 | > 100 | > 100 µM | > 100 µM | > 100 µM | > 100 µM |  |  |
| O=C(CSCC(=O)N/N=C\c1ccc(-c2ccccc2)cc1)N/N=C\c1ccc(-c2ccccc2)cc1 | 54.4 µM | > 100 | 49.2 µM | 91.2 µM | 46.1 |  | 46.5 µM | 53.9 µM | 62.4 µM | > 100 µM | 64.1 µM |  |
| COc1ccc2c(c1)c1c(n2CCN2CCCCC2)-c2ccccc2CC1 | 36.6 µM | > 100 | 27.3 µM | 28.7 µM | 38.3 |  | 42 µM | 30 µM |  | 26.1 µM | 28.3 µM |  |
| CCC1C(c2cc(OC)c(OC)c(OC)c2)c2cc3c(cc2OC1N1CCOCC1)OCO3 (centres undefined) | 17.8 µM | 28.9 |  | 23.7 µM |  | 3.83 | 14.6 µM | 41.5 µM | 24.7 µM | 17.5 µM | 52.6 µM |  |
| C(=C\C(SCc1ccccc1)SCc1ccccc1)/c1ccccc1 | > 10 µM | > 10 | > 10 µM | > 10 µM |  | > 10 | > 10 µM | > 10 µM | > 10 µM | > 10 µM | > 10 µM |  |
| CCOC(=O)C(NC(=O)Nc1ccc(Cl)c(Cl)c1)C(F)(F)F (centres undefined) | > 100 µM |  |  | > 100 µM | > 100 | > 100 |  | > 100 µM |  | > 100 µM |  |  |
| CC(C)=CCSC1CC2C(CC1(C)O)C2(C)C (centres undefined) | 24.1 µM and 30.2 µM |  | 35.7 µM and 27.7 µM | 32 µM and 27.9 µM |  |  | 35 µM and 29.2 µM | 34.9 µM and 29.8 µM | 29.2 µM and 31.7 µM | 28.2 µM and 20.8 µM | 31.2 µM and 30.4 µM | 14.4 µM and 6.12 µM |
| COc1ccc(CCNC(=O)Cc2cc(OC)c(OC)cc2CO)cc1OC | > 100 µM | > 100 | > 100 µM | > 100 µM | > 100 | > 100 | > 100 µM | > 100 µM | > 100 µM | > 100 µM |  |  |
| CNC1=CC(=O)C2=C(C1=O)[C@H]1CC[C@]3(C)C(=O)CC[C@H]3[C@@H]1CC2 | 49.9 µM | 28.8 | 23.6 µM | 28 µM | 13.1 | 25 | 37.4 µM |  | 31.9 µM | 49.2 µM |  |  |
| COc1ccc(CC2NC(=O)/C=C/CC(C(C)C3OC3c3ccccc3)OC(=O)C(CC(C)C)OC(=O)C(C)CNC2=O)cc1Cl (centres undefined) | > 0.1 µM | > 0.1 | > 0.1 µM | 0.00141 µM | 1.58e-05 |  | > 0.1 µM | > 0.1 µM |  |  | > 0.1 µM |  |
| C1=C\CCCCN2C[C@H]3CCCC/C=C\CCCCN4CC[C@@H]([C@H](CCCCCC/1)C4)[C@H](C3)C2 | 6.95 µM | 17.2 | 4.03 µM |  | 3.8 | 3.26 | 6.11 µM | 5.74 µM | 3.67 µM | 3.16 µM | 3.56 µM |  |
| COc1cc2c(c(OC)c1OC)-c1ccc(SC)cc1[C@H](OC(=O)c1ccccc1)CC2 |  | > 61 | > 100 µM |  | > 100 | 0.0222 | > 100 µM | > 100 µM | > 100 µM | > 100 µM |  |  |
| Cn1c(-c2cccs2)cc(-c2cccs2)c1-c1ccsc1 | > 100 µM | > 100 | > 100 µM | > 100 µM | > 100 | > 100 | > 100 µM | > 100 µM | > 100 µM | > 100 µM |  |  |
| Cc1cc2c(c(C=NCc3ccccc3)c1)OC1(C=C2)Oc2ccccc2C(=O)N1C (centres undefined) | > 100 µM | 70.4 | 64.5 µM | > 100 µM | 78.4 |  | 69.9 µM | 76.3 µM | 48.2 µM | 40.9 µM |  |  |
| COC(=O)c1c(C)cccc1/C=C1\Cc2cc(C)cc(C)c2C1=O | > 100 µM | > 100 | > 100 µM | > 100 µM |  | > 100 | 51.4 µM | > 100 µM | 48.6 µM | > 100 µM | > 100 µM |  |
| CC(C)CCn1c(=O)c2c(=O)[nH][nH]c2c2ccccc21 | > 100 µM | > 100 | > 100 µM |  | > 100 | > 100 | > 100 µM |  |  | > 100 µM | > 100 µM |  |
| CCOc1cc(NC(C)=O)ccc1C(=O)NN1C(=O)/C(=C/c2cc(OC)c(OC)c(OC)c2)N=C1c1ccccc1 | > 100 µM |  | 98.2 µM | > 100 µM | > 100 | > 100 | > 100 µM | > 100 µM | > 100 µM | > 100 µM | > 100 µM |  |

| SMILES | TGI (A549 NSCLC) | TGI (DU-145 prostate) [µM] | TGI (KM12 colon) | TGI (M14 melanoma) | TGI (MDA-MB-435) [µM] | TGI (MDA-N) [µM] | TGI (OVCAR-4 ovarian) | TGI (SF-268 CNS) | TGI (UACC-62 melanoma) | TGI (UO-31 renal) | TGI (MALME-3M melanoma) | GI50 (UO-31 renal) |
| --- | --- | --- | --- | --- | --- | --- | --- | --- | --- | --- | --- | --- |
| O=C1CCCCc2cccc(O)c21 |  | > 100 | > 100 µM | > 100 µM | > 100 |  | > 100 µM | > 100 µM | > 100 µM | > 100 µM | > 100 µM |  |
| COc1cccc(-c2cc(=O)c3c(C)ccnc3[nH]2)c1 | > 100 µM |  | 1.49 µM | > 100 µM |  |  | > 100 µM | > 100 µM | > 100 µM | > 100 µM | > 100 µM |  |
| S=C1N=C(Cl)C2(NN1)c1ccccc1-c1ccccc12 | > 10 µM | > 10 | > 10 µM | > 10 µM |  | > 10 | > 10 µM | > 10 µM | > 10 µM | > 10 µM | > 10 µM |  |
| C=CC[C@H]1[C@H](O[Si](C)(C)C(C)(C)C)C=CC(=O)[C@@H]1CC(=O)N(Cc1ccccc1)Cc1ccccc1 | > 100 µM | > 100 | > 100 µM | > 100 µM | > 100 | > 100 | > 100 µM | 93.4 µM | > 100 µM | 41.2 µM |  |  |
| CN1CN(c2ccccc2)C2(CCN(CCc3csc4ccccc34)CC2)C1=O | 64.2 µM | 54.2 | 25.9 µM | 38.4 µM | 31.6 |  |  | > 100 µM | 38 µM | 14.3 µM | 29.1 µM |  |
| CC1(C)CC(=O)c2c(nc3ccc4ccccc4c3c2-c2ccc(NC(=O)CCC(=O)Nc3ccc(-c4c5c(nc6ccc7ccccc7c46)CC(C)(C)CC5=O)cc3)cc2)C1 | > 100 µM | > 100 | > 100 µM | > 100 µM | > 100 | > 100 |  | > 100 µM |  | > 100 µM |  |  |
| COc1cc2c(cc1OC)CC(N=[N+]=[N-])c1cc(OC)c(OC)cc1/C=C\2 (centres undefined) | > 100 µM | > 100 | > 100 µM | > 100 µM | > 100 | 25.2 | > 100 µM | > 100 µM | > 100 µM | > 100 µM |  |  |
| COCc1cc2c(cc1/C=C/[N+](=O)[O-])OCO2 | 32.2 µM | 34.4 | 35.8 µM | 30.6 µM | 33.2 | 32.6 |  | 40.4 µM | 32 µM | 30.9 µM |  |  |
| c1cc2c(c(-c3c4ccccc4nc4ccccc34)c1)CC1(CC2)OCCO1 | > 100 µM |  | > 100 µM | > 100 µM | > 100 | > 100 | > 100 µM | > 100 µM |  | > 100 µM | > 100 µM |  |
| CC(C)=CCC/C(C)=C/CC/C(C)=C/CC/C(C)=C/CC/C(C)=C\CC/C(C)=C/CC/C(C)=C/CC/C(C)=C/Cc1cc(O)ccc1O | > 22.6 µM | > 72.9 | 2.53 µM | 1.25 µM |  |  | 7.4 µM | 5.21 µM | 0.857 µM | 5.71 µM |  |  |
| Cc1cn(Cc2ccccc2CCl)c(=O)[nH]c1=O | 36.6 µM | 31.3 | 37.4 µM | 28.2 µM | 29 |  | > 100 µM | 38.1 µM | 28.2 µM | 24.8 µM | 57 µM |  |
| CSC1=C(c2ccc(Cl)cc2)SC(N2CCCCC2)N1c1ccc([N+](=O)[O-])cc1 (centres undefined) | > 100 µM |  | > 100 µM | > 100 µM | > 100 | > 100 | > 100 µM | > 100 µM | > 100 µM | > 100 µM | > 100 µM |  |
| O=C(CC(C(=O)c1ccoc1)c1ccco1)c1ccco1 (centres undefined) | > 100 µM | > 100 | > 100 µM | > 100 µM | > 100 | > 100 | > 100 µM | > 100 µM | > 100 µM | > 100 µM |  |  |
| c1ccc(CSc2nc(N3CCOCC3)c3cn[nH]c3n2)cc1 | > 100 µM | > 100 | 38.5 µM | 49 µM | 40 |  | > 100 µM | 58.8 µM | 30.3 µM | 38.4 µM | 31.8 µM |  |
| COC(=O)CCC12CCC(O1)c1ccccc12 (centres undefined) | > 100 µM | > 100 | > 100 µM | > 100 µM | > 100 | > 100 | > 100 µM |  | > 100 µM | > 100 µM |  |  |
| CC[C@@H](/C=C\CCC1(C[C@H](O)CCC=C(C)C)OCCO1)O[Si](C(C)C)(C(C)C)C(C)C | > 100 µM | > 100 | > 100 µM | 72.7 µM | > 100 | > 100 | > 100 µM | 41.9 µM | 64.5 µM | 34.3 µM |  |  |
